Experimental findings from US8815249B2 (priority 1999, dated 2014) are described below.

Test [1] concerns normal donor (DR0402) PBMC. The test is classed as cell-based, human.
Test [2] relates to normal donor (DR0701) PBMC. Format: cell-based, human.
For test [3], the system named is HIV gp160(843-855) peptide. The test is classed as in vivo. As to conditions: B10.A (5R) mice, peptides in saline solution, serum day 35. Here is the method: An ELISA assay for antibody responses following immunization with the experimental peptides indicated above was performed as follows. Fifty microliters (μl) of a solution of the coating peptide at 2 μg/well in 0.1 M carbonate buffer, pH 9.5 was added to each well of a 96-well Nunc-immunoplate (#442404) for an overnight incubation at 4° C. After aspiration, 250 μl of phosphate-buffer saline solution containing 3% fetal bovine serum (assay diluent) was added to each well for 2 hr at RT. After washing three times with assay diluent, 50 μl of 20-times diluted mouse serum in 1:3 serial dilution in assay diluent was added to each well for 2 hr at RT. After washing three times with assay diluent, 50 μl of 1 ÿg/ml biotinylated goat anti-mouse IgG1 or IgG2a was added to each well and incubated for 1 hr at RT. After washing three times with assay diluent, 50 μl of streptavidin-horse radish peroxidase conjugate (1:1000) was added to each well and incubated for 30 min at RT. After washing three times with assay diluent, 100 μl of tetramethylbenzidine/H2O2 solution (Pharmingen 264KK) was added to each well for 15 min in the dark at room temperature. The reaction was stopped with 100 μl 1N H2SO4 in each well and the absorbance was read immediately at 450 nm.
B10.A (5R) mice (H-2^k/b) were immunized with 20 nmole of peptides in 50 μl phosphate-buffered saline solution, intramuscularly in right and left rear legs on days 1 and 2, respectively. On day 14 the mice were boosted intramuscularly with 40 nmole of peptides in 200 μl Hank's balanced salts solution intramuscularly in a rear leg. On day 30 the mice were boosted intravenously with 40 nmole peptides dissolved in Hank's balanced salts solution (HBSS). On day 35 the mice were sacrificed and serum samples were assayed for antibody titers against the HIV gp160(843-855) peptide.

Read-outs that look alike come from different tables or passages of the source. Non-standard residues stand in square brackets, D forms with d. Ava = NCCCCC(=O)O

Take “AE-TYR-6 (Ac-LRMK[Ava]HIYMDGTMSQVQGSA-NH2; SMILES CC[C@H](C)[C@H](NC(=O)[C@H](Cc1c[nH]cn1)NC(=O)CCCCNC(=O)[C@H](CCCCN)NC(=O)[C@H](CCSC)NC(=O)[C@H](CCCNC(=N)N)NC(=O)[C@H](CC(C)C)NC(C)=O)C(=O)N[C@@H](Cc1ccc(O)cc1)C(=O)N[C@@H](CCSC)C(=O)N[C@@H](CC(=O)O)C(=O)NCC(=O)N[C@H](C(=O)N[C@@H](CCSC)C(=O)N[C@@H](CO)C(=O)N[C@@H](CCC(N)=O)C(=O)N[C@H](C(=O)N[C@@H](CCC(N)=O)C(=O)NCC(=O)N[C@@H](CO)C(=O)N[C@@H](C)C(N)=O)C(C)C)[C@@H](C)O)”: in test [1], the IFN-γ spots pulsed worked out at 650 spots and the IFN-γ spots unpulsed was 280 spots.

In test [2], AE-Her-37 (Ac-LRMKGVGSPYVSRLLGICL-NH2) returned an IFN-γ spots pulsed of 560 spots and an IFN-γ spots unpulsed of 65 spots.

Turning to AE-TYR-1 (Ac-ALHIYMDGTMSQVQGSA-NH2), in test [1], the IFN-γ spots pulsed stood at 120 spots and the IFN-γ spots unpulsed was 0 spots.

In test [2], “AE-Her-39 (Ac-LRMK[Ava]GVGSPYVSRLLGICL-NH2; SMILES CC[C@H](C)[C@H](NC(=O)CNC(=O)[C@H](CC(C)C)NC(=O)[C@H](CC(C)C)NC(=O)[C@H](CCCNC(=N)N)NC(=O)[C@H](CO)NC(=O)[C@@H](NC(=O)[C@H](Cc1ccc(O)cc1)NC(=O)[C@@H]1CCCN1C(=O)[C@H](CO)NC(=O)CNC(=O)[C@@H](NC(=O)CNC(=O)CCCCNC(=O)[C@H](CCCCN)NC(=O)[C@H](CCSC)NC(=O)[C@H](CCCNC(=N)N)NC(=O)[C@H](CC(C)C)NC(C)=O)C(C)C)C(C)C)C(=O)N[C@@H](CS)C(=O)N[C@@H](CC(C)C)C(N)=O)” registered an IFN-γ spots pulsed of 160 spots and an IFN-γ spots unpulsed of 24 spots.

For the substance “AE-Her-38 (Ac-LRMK[Ava]SPYVSRLLGICL-NH2; SMILES CC[C@H](C)[C@H](NC(=O)CNC(=O)[C@H](CC(C)C)NC(=O)[C@H](CC(C)C)NC(=O)[C@H](CCCNC(=N)N)NC(=O)[C@H](CO)NC(=O)[C@@H](NC(=O)[C@H](Cc1ccc(O)cc1)NC(=O)[C@@H]1CCCN1C(=O)[C@H](CO)NC(=O)CCCCNC(=O)[C@H](CCCCN)NC(=O)[C@H](CCSC)NC(=O)[C@H](CCCNC(=N)N)NC(=O)[C@H](CC(C)C)NC(C)=O)C(C)C)C(=O)N[C@@H](CS)C(=O)N[C@@H](CC(C)C)C(N)=O)”, in test [2], the IFN-γ spots pulsed is given as 210 spots and the IFN-γ spots unpulsed stood at 27 spots.

In test [2], “AE-Her-36 (Ac-GVGSPYVSRLLGICL-NH2; listed as Homo sapiens)” gave an IFN-γ spots pulsed of 100 spots and an IFN-γ spots unpulsed of 4 spots.

In test [2], “AE-Her-48 (Ac-LRMK[Ava]VGSPYVSRLLGICL-NH2; SMILES CC[C@H](C)[C@H](NC(=O)CNC(=O)[C@H](CC(C)C)NC(=O)[C@H](CC(C)C)NC(=O)[C@H](CCCNC(=N)N)NC(=O)[C@H](CO)NC(=O)[C@@H](NC(=O)[C@H](Cc1ccc(O)cc1)NC(=O)[C@@H]1CCCN1C(=O)[C@H](CO)NC(=O)CNC(=O)[C@@H](NC(=O)CCCCNC(=O)[C@H](CCCCN)NC(=O)[C@H](CCSC)NC(=O)[C@H](CCCNC(=N)N)NC(=O)[C@H](CC(C)C)NC(C)=O)C(C)C)C(C)C)C(=O)N[C@@H](CS)C(=O)N[C@@H](CC(C)C)C(N)=O)” came in with an IFN-γ spots pulsed of 1770 spots and an IFN-γ spots unpulsed of 212 spots.

In test [1], “AE-TYR-4 (Ac-LRMK[Ava]ALHIYMDGTMSQVQGSA-NH2; SMILES CC[C@H](C)[C@H](NC(=O)[C@H](Cc1c[nH]cn1)NC(=O)[C@H](CC(C)C)NC(=O)[C@H](C)NC(=O)CCCCNC(=O)[C@H](CCCCN)NC(=O)[C@H](CCSC)NC(=O)[C@H](CCCNC(=N)N)NC(=O)[C@H](CC(C)C)NC(C)=O)C(=O)N[C@@H](Cc1ccc(O)cc1)C(=O)N[C@@H](CCSC)C(=O)N[C@@H](CC(=O)O)C(=O)NCC(=O)N[C@H](C(=O)N[C@@H](CCSC)C(=O)N[C@@H](CO)C(=O)N[C@@H](CCC(N)=O)C(=O)N[C@H](C(=O)N[C@@H](CCC(N)=O)C(=O)NCC(=O)N[C@@H](CO)C(=O)N[C@@H](C)C(N)=O)C(C)C)[C@@H](C)O)” gave an IFN-γ spots pulsed of 620 spots and an IFN-γ spots unpulsed of 340 spots.

For “Ac-LRMK-ava-ava-AYRAIRHIPR-NH2 (Ac-LRMK[Ava][Ava]AYRAIRHIPR-NH2; SMILES CC[C@H](C)[C@H](NC(=O)[C@H](C)NC(=O)[C@H](CCCNC(=N)N)NC(=O)[C@H](Cc1ccc(O)cc1)NC(=O)[C@H](C)NC(=O)CCCCNC(=O)CCCCNC(=O)[C@H](CCCCN)NC(=O)[C@H](CCSC)NC(=O)[C@H](CCCNC(=N)N)NC(=O)[C@H](CC(C)C)NC(C)=O)C(=O)N[C@@H](CCCNC(=N)N)C(=O)N[C@@H](Cc1c[nH]cn1)C(=O)N[C@H](C(=O)N1CCC[C@H]1C(=O)N[C@@H](CCCNC(=N)N)C(N)=O)[C@@H](C)CC) [Ii-Key/two-ava/gp160(843-855)]”, the “Antibody induction, ELISA against HIV gp160(843-855) peptide” value is 0.131 in test [3] (Dilution^−1 20), 0.039 in test [3] (Dilution^−1 60), 0.027 in test [3] (Dilution^−1 180) and 0.003 in test [3] (Dilution^−1 540).

Take “AE-Her-47 (Ac-LRMK[Ava]GSPYVSRLLGICL-NH2; SMILES CC[C@H](C)[C@H](NC(=O)CNC(=O)[C@H](CC(C)C)NC(=O)[C@H](CC(C)C)NC(=O)[C@H](CCCNC(=N)N)NC(=O)[C@H](CO)NC(=O)[C@@H](NC(=O)[C@H](Cc1ccc(O)cc1)NC(=O)[C@@H]1CCCN1C(=O)[C@H](CO)NC(=O)CNC(=O)CCCCNC(=O)[C@H](CCCCN)NC(=O)[C@H](CCSC)NC(=O)[C@H](CCCNC(=N)N)NC(=O)[C@H](CC(C)C)NC(C)=O)C(C)C)C(=O)N[C@@H](CS)C(=O)N[C@@H](CC(C)C)C(N)=O)”: in test [2], the IFN-γ spots pulsed was found to be 380 spots and the IFN-γ spots unpulsed was determined as 23 spots.

In test [1], AE-TYR-2 (Ac-HNALHIYMDGTMSQVQGSA-NH2) had an IFN-γ spots pulsed of 360 spots and an IFN-γ spots unpulsed of 140 spots.

As to “Ac-LRMK-ava-AYRAIRHIPR-NH2 (Ac-LRMK[Ava]AYRAIRHIPR-NH2; SMILES CC[C@H](C)[C@H](NC(=O)[C@H](C)NC(=O)[C@H](CCCNC(=N)N)NC(=O)[C@H](Cc1ccc(O)cc1)NC(=O)[C@H](C)NC(=O)CCCCNC(=O)[C@H](CCCCN)NC(=O)[C@H](CCSC)NC(=O)[C@H](CCCNC(=N)N)NC(=O)[C@H](CC(C)C)NC(C)=O)C(=O)N[C@@H](CCCNC(=N)N)C(=O)N[C@@H](Cc1c[nH]cn1)C(=O)N[C@H](C(=O)N1CCC[C@H]1C(=O)N[C@@H](CCCNC(=N)N)C(N)=O)[C@@H](C)CC) [Ii-Key/one-ava/gp160(843-855)]”, the “Antibody induction, ELISA against HIV gp160(843-855) peptide” value came to 0.600 in test [3] (Dilution^−1 20), 0.157 in test [3] (Dilution^−1 60), 0.073 in test [3] (Dilution^−1 180) and 0.024 in test [3] (Dilution^−1 540).

“AE-TYR-3 (Ac-LRMK[Ava]NALHIYMDGTMSQVQGSA-NH2; SMILES CC[C@H](C)[C@H](NC(=O)[C@H](Cc1c[nH]cn1)NC(=O)[C@H](CC(C)C)NC(=O)[C@H](C)NC(=O)[C@H](CC(N)=O)NC(=O)CCCCNC(=O)[C@H](CCCCN)NC(=O)[C@H](CCSC)NC(=O)[C@H](CCCNC(=N)N)NC(=O)[C@H](CC(C)C)NC(C)=O)C(=O)N[C@@H](Cc1ccc(O)cc1)C(=O)N[C@@H](CCSC)C(=O)N[C@@H](CC(=O)O)C(=O)NCC(=O)N[C@H](C(=O)N[C@@H](CCSC)C(=O)N[C@@H](CO)C(=O)N[C@@H](CCC(N)=O)C(=O)N[C@H](C(=O)N[C@@H](CCC(N)=O)C(=O)NCC(=O)N[C@@H](CO)C(=O)N[C@@H](C)C(N)=O)C(C)C)[C@@H](C)O)”: in test [1], the IFN-γ spots pulsed stood at 310 spots and the IFN-γ spots unpulsed came to 70 spots.
